Tests used:
[1] = target: T1, Tyrosinekinase of the EGF (Epidermal Growth Factor) Receptor (Homo sapiens, UniProt P00533); assay: Inhibition of tyrosinekinase of the EGF receptor (A431 cell membranes); format: biochemical; details: membranes of A431 cells; samples containing poly(Glu, Ala, Tyr 6:3:1) substrate and EGF; 15 minutes at 30° C.; read-out: IC50, concentration of substance which inhibits the enzyme activity by 50% (converted)
T1 construct: Membranes of A431 cells (ATCC CRL 1555) are used as the source of EGF receptors; endogenous in cells; host or cells: A431 cell membranes (ATCC CRL 1555)
Experimental: 1 - Measurement of the Inhibition of Tyrosinekinase of the EGF (Epidermal Growth Factor) Receptor
Membranes of A431 cells (ATCC CRL 1555) are used as the source of EGF receptors. This cellular lineage expresses a large number of EGF receptors at its surface which have a tyrosinekinase activity.
These cells are pre-incubated with or without EGF (1000 nM) for 15 minutes and are added to a corresponding HEPES buffer (N-2-hydroxyethyl-piperazine-N'-2-ethanesulphonic acid) (with or without EGP) and containing Mg^2+ (10 mM) and Mn^2+ (2 mM) ions, 0.2% of X-100 triton, sodium orthovanadate (20 micromoles) and the inhibitor.
Samples either containing or not containing the poly substrate (Glu, Ala, Tyr 6:3:1) are prepared. The reaction is initiated by the addition of [gamma P^32 ] ATP (32 micromoles). After incubation for 15 minutes at 30° C. the samples are precipitated using 10% […], followed by filtering on a millipore membrane and the incorporated P^32 is measured with a liquid scintillation counter.
The results are expressed in IC50, that is the concentration of substance which inhibits the enzyme activity by 50%, determined by a series of dilutions starting at 51 micrograms/ml in the samples containing the substrate and EGF.

[2] = system: catalytic sub-unit of the proteinkinase dependent on cyclic 3',5'-AMP; assay: Inhibition of the proteinkinase dependent on cyclic 3',5'-AMP; format: biochemical; details: inhibitor 40 micrograms/ml; KEMPTID substrate; pH 6.9; 15 minutes at 30° C.
Experimental: 2 - Measurement of the Inhibition of the Proteinkinase Dependent on Cyclic 3',5'-AMP
The catalytic sub-unit of the proteinkinase dependent on cyclic 3',5'-AMP was reconstituted as indicated in SIGMA®. The enzyme activity was measured using KEMPTID® (SIGMA®) as substrate (KEMPTID - Leu-Arg-Arg-Ala-Ser-Leu-Gly).
The inhibitor is pre-incubated at pH 6.9 with the enzyme, the substrate (190 micromoles), Mg^+2 (5 mM), 0.25 mg/ml of BSA (Bovine Serum Albumin) and 3.75 mM of mercaptoethanol in 50 mM of 4-morpholinopropanesulphonic acid.
The reaction is initiated using gamma P^32 ATP (40 micromoles). After 15 minutes at 30° C. an aliquot is placed on an ion-exchange paper ([…]; WHATMAN®) plunged into phosphoric acid (75 mM), washed, dried and the incorporation of P^32 is measured using a liquid scintillation counter.
The results are expressed as a percentage of the enzyme activity inhibition at a concentration of inhibitor of 40 micrograms/ml.

T1 sequence (P00533 25-1210): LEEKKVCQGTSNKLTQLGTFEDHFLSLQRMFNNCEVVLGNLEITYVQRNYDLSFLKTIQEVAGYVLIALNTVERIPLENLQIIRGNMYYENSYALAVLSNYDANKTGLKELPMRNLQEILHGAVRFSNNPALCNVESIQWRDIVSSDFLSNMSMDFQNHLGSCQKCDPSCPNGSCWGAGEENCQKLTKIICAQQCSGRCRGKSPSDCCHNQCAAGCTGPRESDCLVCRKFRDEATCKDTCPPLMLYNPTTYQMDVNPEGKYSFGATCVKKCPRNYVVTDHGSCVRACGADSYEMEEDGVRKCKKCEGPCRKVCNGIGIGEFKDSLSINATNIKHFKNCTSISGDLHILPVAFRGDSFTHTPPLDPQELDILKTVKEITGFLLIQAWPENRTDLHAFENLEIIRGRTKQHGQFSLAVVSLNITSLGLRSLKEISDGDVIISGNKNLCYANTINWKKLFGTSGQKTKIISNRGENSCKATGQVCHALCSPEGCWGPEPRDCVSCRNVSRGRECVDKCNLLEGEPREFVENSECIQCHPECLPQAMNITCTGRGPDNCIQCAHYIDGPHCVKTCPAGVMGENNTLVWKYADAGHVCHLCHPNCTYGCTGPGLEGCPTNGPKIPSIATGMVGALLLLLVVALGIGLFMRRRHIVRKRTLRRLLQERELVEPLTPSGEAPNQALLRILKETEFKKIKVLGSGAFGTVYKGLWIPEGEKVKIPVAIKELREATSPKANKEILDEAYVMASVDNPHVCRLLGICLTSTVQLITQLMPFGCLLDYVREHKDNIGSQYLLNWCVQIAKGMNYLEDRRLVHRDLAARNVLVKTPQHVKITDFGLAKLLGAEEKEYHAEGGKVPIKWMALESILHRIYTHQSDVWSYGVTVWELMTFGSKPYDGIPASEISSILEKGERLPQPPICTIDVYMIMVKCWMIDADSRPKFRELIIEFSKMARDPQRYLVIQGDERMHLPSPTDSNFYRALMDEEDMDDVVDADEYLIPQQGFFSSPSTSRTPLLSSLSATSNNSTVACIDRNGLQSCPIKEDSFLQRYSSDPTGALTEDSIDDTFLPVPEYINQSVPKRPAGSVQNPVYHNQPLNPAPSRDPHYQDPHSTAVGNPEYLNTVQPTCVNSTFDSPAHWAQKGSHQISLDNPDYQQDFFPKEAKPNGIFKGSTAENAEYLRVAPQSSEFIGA
T1 sequence (P01133 971-1023 partner limits assumed): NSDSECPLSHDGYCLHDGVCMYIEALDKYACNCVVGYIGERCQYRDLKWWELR

IC50 [1] | percentage of the enzyme activity inhibition [2] | Compound
621 nM | 18% | Br.CNC1Cc2ccc(O)c(O)c2-c2ccccc21 (stereo not shown) [Example 3, 3,4-dihydroxy-9-methylamino-9,10-dihydrophenanthrene (hydrobromide)]
2350 nM | 19% | CN(C)C1Cc2ccc(O)c(O)c2-c2ccccc21 (stereo not shown) [Product A, 3,4-dihydroxy-9-dimethylamino-9,10-dihydrophenanthrene]

From US5189065A, “Use of derivatives of 9,10-dihydrophenanthrene for the preparation of an anti-tumor medicament” (Roussel Uclaf, priority 1989, dated 1993)
